From patent US4166864A, “Pesticidal unsymmetrical bis-arylcarbamate disulfide compounds” (Union Carbide Corporation, priority 1977, dated 1979) come the findings set out here.

Common to all, as to type: in vivo
The subject of data set [1] is house flies (Musca domestica, L.). Nature of the data set: Fly Bait Test. Also noted: key: A: excellent control; B: partial control; C: no control. The settings on record: 500 ppm in sugar-solution bait, twenty four hours. The method, then:
(§1) Suspensions of the test compounds were prepared by dissolving one gram of compound in 50 milliliters of acetone in which had been dissolved 0.1 gram (10 percent of the weight of compound) of an alkylphenoxy polyethoxyethanol surfactant, as an emulsifying or dispersing agent. The resulting solution was mixed into 150 milliliters of water to give roughly 200 milliliters of a suspension containing the compound in finely divided form. The thus-prepared stock suspension contained 0.5 percent by weight of compound. The test concentrations in parts per million by weight employed in the tests described hereinbelow were obtained by appropriate dilutions of the stock suspension with water. The test procedures were as follows:
Four to six day old adult house flies (Musca domestica, L.) reared according to the specifications of the Chemical Specialties Manufacturing Association (Blue Book, McNair-Dorland Co., N.Y. 1954; pages 243-244, 261) under controlled conditions of 80°±5° F. and 50±5 percent relative humidity, were the test insects. The flies were immobilized by anesthetizing with carbon dioxide and twenty five immobilized individuals, males and females, were transferred to a cage consisting of a standard food strainer about five inches in diameter which was inverted over a wrapping-paper-covered surface. The test compounds were formulated by diluting the stock suspension with a 10 percent (by weight) sugar solution to give a suspension containing 500 parts of test compound per million parts of final formulation, by weight. Ten milliliters of the test formulation were added to a souffle cup containing a one-inch square of an absorbent cotton pad. This bait cup was introduced and centered on the blotting paper under the food strainer prior to admitting the anesthetized flies. The caged flies were allowed to feed on the bait for twenty four hours, at a temperature of 80°±5° F. and the relative humidity of 50±5 percent.
(§2) In these tests the pesticidal activity of the compounds against aphid, mite, Southerm Armyworm, Bean Beetle and house fly was rated as follows: […]

For the next data set, the system named is Soybean. Nature of the data set: Phytotoxicity Test, soybean. Also noted: key: 1: no perceptible injury; 2: intermediate degrees of injury based upon the number and extent to which leaves were injured; 3: intermediate degrees of injury based upon the number and extent to which leaves were injured; 4: intermediate degrees of injury based upon the number and extent to which leaves were injured; 5: the plant was dead. The conditions noted are these: 2500 ppm spray, rated after ten days. The method, then:
Experiments were also conducted to determine the phytoxicity of representative compounds with respect to healthy fresh plants. Solutions of the compounds were prepared as described above to provide a concentration of 2500 parts per million of the test compound. The test plants were sprayed in accordance with the procedure described above for the Mite Foliage Spray Test so as to deliver approximately 100 milliliters of test solution to the leaves of each plant tested. The sprayed plants and controls were set aside for approximately one hour to allow the foliage to dry and were then placed in the greenhouse. After ten days the plants were visually inspected to determine the extent of foliage injury. A rating of 1 indicates no perceptible injury; 5 indicates the plant was dead and ratings of 2, 3 and 4 indicate intermediate degrees of injury based upon the number and extent to which leaves were injured.

Data set [2] deals with Mexican bean beetle (Epilachna varivestis, Muls.). Nature of the data set: Mexican Bean Beetle Leaf Spray Test. Also noted: key: A: excellent control; B: partial control; C: no control. The conditions noted are these: 500 ppm leaf spray, three days. The protocol:
as §1
Fourth instar larvae of the Mexican bean beetle (Epilachna varivestis, Muls.), reared on Tendergreen bean plants at a temperature of 80°±5° F. and 50±5 percent relative humidity, were the test insects.
The test compounds were formulated by diluting the stock suspension with water to give a suspension containing 500 parts of test compound per million parts of final formulation. Potted Tendergreen bean plants of standard height and age were placed on a revolving turntable and sprayed with 100-110 milliliters of test compound formulation by use of a DeVilbiss spray gun set at 10 psig air pressure. This application, which lasted 25 seconds, was sufficient to wet plants to run-off. As a control, 100-110 milliliters of a water-acetone-emulsifier solution containing no test compound were also sprayed on infested plants. When dry, the paired leaves were separated and each was placed in a 9 centimeter Petri dish lined with moistened filter paper. Five randomly selected larvae were introduced into each dish, and the dishes were closed. The closed dishes were labeled and held at a temperature of 80°±5° F. for three days. Although the larvae could easily consume the leaf within 24 to 48 hours, no more food was added. Larvae which were unable to move the length of the body, even upon stimulation, were considered dead.
as §2

For data set [3], the system named is southern armyworm (Prodenia eridania, (Cram.)). Kind of data set: Southern Armyworm Leaf Spray Test. Details: key: A: excellent control; B: partial control; C: no control. The settings on record: 500 ppm leaf spray, three days. The protocol: as §1
Larvae of the southern arymworm (Prodenia eridania, (Cram.)), reared on Tendergreen bean plants at a temperature of 80°±5° F. and a relative humidity of 50±5 percent, constituted the test insects.
The test compounds were formulated by diluting the stock suspension with water to give a suspension containing 500 parts of test compound per million parts of final formulation. Potted Tendergreen bean plants of standard height and age were placed on a revolving turntable and sprayed with 100-110 milliliters of test compound formulation by use of a DeVilbiss spray gun set at 10 psig air pressure. This application, which lasted 25 seconds, was sufficient to wet plants to run-off. As a control, 100-110 milliliters of a water-acetone-emulsifier solution containing no test compound were also sprayed on infested plants. When dry, the paired leaves were separated and each one was placed in a 9 centimeter Petri dish lined with moistened filter paper. Five randomly selected larvae were introduced into each dish and the dishes were closed. The closed dishes were labeled and held at 80°-85° F. for three days. Although the larvae could easily consume the whole leaf within twenty-four hours, no more food was added. Larvae which were unable to move the length of the body, even upon stimulation by prodding, were considered dead. Percent mortality was recorded for various concentration levels.
as §2

Data set [4] has as its system bean aphid (Aphis fabae Scop.). Kind of data set: Bean Aphid Foliage Spray Test. Details: key: A: excellent control; B: partial control; C: no control. The conditions noted are these: 500 ppm foliage spray, 24 hour holding period. The method, then: as §1
Adults and nymphal stages of the bean aphid (Aphis fabae Scop.) reared on potted dwarf nasturtium plants at […] and 50-70 percent relative humidity, constituted the test insects. For testing purposes, the number of aphids per pot was standardized to 100-150 by trimming plants containing excess aphids.
The test compounds were formulated by diluting the stock suspension with water to give a suspension containing 500 parts of test compound per million parts of final formulation.
The potted plants (one pot per compound tested) infested with 100-150 aphids, were placed on a revolving turntable and sprayed with 100-110 milliliters of test compound formulation by use of a DeVilbiss spray gun set at 40 psig. air pressure. This application, which lasted 25 seconds, was sufficient to wet the plants to run-off. As a control, 100-110 milliliters of a water-acetone-emulsifier solution containing no test compound were also sprayed on infested plants. After spraying, the pots were placed on their sides on a sheet of white standard mimeograph paper which had been previously ruled to facilitate counting. Temperature and humidity in the test room during the 24 hour holding period were 65°-70° F. and 50-70 percent, respectively. Aphids which fell onto the paper and were unable to remain standing after being uprighted were considered dead. Aphids remaining on the plants were observed closely for movement and those which were unable to move the length of the body upon stimulation by prodding were considered dead. Percent mortality was recorded for various concentration levels.
as §2

Each structure is given as a SMILES string.

For `C#CCOc1ccccc1OC(=O)N(C)SSN(C)C(=O)Oc1cccc2c1OC(C)(C)C2`, in data set [1], the “Insecticidal activity rating, Housefly” value was “A”. Moreover, in the data set with Soybean, the “Phytotoxicity, Soybean” value was 2. For the same molecule, the “Insecticidal activity rating, Mexican Bean Beetle” value in data set [2] is “A”. Besides, the “Insecticidal activity rating, Southern Armyworm” value in data set [3] was “A”. In addition, the “Insecticidal activity rating, Aphid” value in data set [4] is “A”.

Turning to `CN(SSN(C)C(=O)Oc1cccc2ccccc12)C(=O)Oc1cccc2c1OC(C)(C)C2`, in data set [1], the “Insecticidal activity rating, Housefly” value was “A”. Also, in the data set with Soybean, the “Phytotoxicity, Soybean” value stood at 1. Further, the “Insecticidal activity rating, Mexican Bean Beetle” value in data set [2] is given as “A”. For the same molecule, in data set [3], the “Insecticidal activity rating, Southern Armyworm” value is recorded as “A”. Also, in data set [4], the “Insecticidal activity rating, Aphid” value is on record as “A”.

Consider `CSc1ccc(OC(=O)N(C)SSN(C)C(=O)Oc2cccc3c2OC(C)(C)C3)cc1C`, for which the “Insecticidal activity rating, Housefly” value in data set [1] is “A”. For the same molecule, the “Phytotoxicity, Soybean” value in the data set with Soybean was 1. Moreover, in data set [2], the “Insecticidal activity rating, Mexican Bean Beetle” value is listed as “A”. Besides, the “Insecticidal activity rating, Southern Armyworm” value in data set [3] was “A”. Besides, the “Insecticidal activity rating, Aphid” value in data set [4] is “A”.

Regarding `Cc1cc(C)cc(OC(=O)N(C)SSN(C)C(=O)Oc2cccc3c2OC(C)(C)C3)c1`, the “Insecticidal activity rating, Housefly” value in data set [1] is “A”. Further, the “Phytotoxicity, Soybean” value in the data set with Soybean worked out at 1. In data set [2], the “Insecticidal activity rating, Mexican Bean Beetle” value was “A”. The “Insecticidal activity rating, Southern Armyworm” value in data set [3] is recorded as “A”. Besides, the “Insecticidal activity rating, Aphid” value in data set [4] is “A”.

On to `CN(SSN(C)C(=O)Oc1cccc2c1OC(C)(C)C2)C(=O)Oc1cccc(N(C)C)c1`, for which the “Insecticidal activity rating, Housefly” value in data set [1] is “A”. Further, in the data set on Soybean, the “Phytotoxicity, Soybean” value came to 1. Besides, the “Insecticidal activity rating, Mexican Bean Beetle” value in data set [2] is “A”. Further, in data set [3], the “Insecticidal activity rating, Southern Armyworm” value is given as “A”. The “Insecticidal activity rating, Aphid” value in data set [4] is given as “A”.

Turning to `CN(SSN(C)C(=O)Oc1cccc2c1OC(C)(C)C2)C(=O)Oc1ccc2c(c1)OCO2`, in data set [1], the “Insecticidal activity rating, Housefly” value is reported as “A”. Also, the “Phytotoxicity, Soybean” value in the data set with Soybean worked out at 1. The “Insecticidal activity rating, Mexican Bean Beetle” value in data set [2] was “A”. Moreover, the “Insecticidal activity rating, Southern Armyworm” value in data set [3] is on record as “A”. The “Insecticidal activity rating, Aphid” value in data set [4] is recorded as “A”.

In the case of `CN(SSN(C)C(=O)Oc1ccccc1C1SCCS1)C(=O)Oc1ccc(C(C)(C)C)cc1`, in data set [1], the “Insecticidal activity rating, Housefly” value is given as “A”. Moreover, the “Phytotoxicity, Soybean” value with Soybean is given as 1. Moreover, the “Insecticidal activity rating, Mexican Bean Beetle” value in data set [2] is on record as “A”. In addition, in data set [3], the “Insecticidal activity rating, Southern Armyworm” value is “C”. Moreover, the “Insecticidal activity rating, Aphid” value in data set [4] is “A”.
